In US20150368620A1, “METHOD OF DETACHING ADHERENT CELLS FOR FLOW CYTOMETRY” (KING ABDULLAH UNIVERSITY OF SCIENCE AND TECHNOLOGY, priority 2013, published 2015):

Key:
[1] = system: BJ, MCF-7 and HeLa cells; conditions: untreated cells lifted with EDTA, APOPercentage staining
Experimental: (§1) In one method, five thousand cells were plated per well in 45 μl of media in 96-well plate. The cells were shaken at 750 rpm with an Orbital shaker for 20 seconds and allowed to settle for 16-24 hrs in 5% CO2 incubator at 37° C. A desired concentration of drug was added to cells in a volume of […] to make the final volume per well up to 50 μl. The cells and drug were mixed at 750 rpm with an Orbital shaker for 20 seconds and incubated again for desired period of time. Twelve microliters of 15 mM EDTA pH 6.14 (upto 20 mM can be added depending on the cell line) were added per well, mixed at 750 rpm with an Orbital shaker for 20 seconds and incubated at 37° C. for 45 min to 1 hour (until cells lift). Fifteen microliters of media containing 1 μl APOPercentage dye was added to the cells and incubated for 15-20 min at 37° C. The cells were analyzed on flow cytometer setting a threshold for FSC-H of 80,000, cytometer speed at medium (2 μl/sec), peristaltic pump speed at 23 rpm, shaking on 1800 rpm, gating on 2D plot of FSC vs SSC and a 1D plot measuring FL2-H/FL3-H on the X axis. The HTFC system was used.

[2] = system: DU145 cells; conditions: 12 μl of 15 mM EDTA pH 6.14 added to media, 37° C., 96-well
Experimental: as §1
(§2) The following steps can be used to measure apoptosis using APOPercentage Assay in adherent cells. 5000 cells per well were plated in 45 μl of media in 96-well plate, shaken at 750 rpm with an Orbital shaker for 20 seconds, and allowed to settle 16-24 hours (h). Desired concentration of drug was added to cells in a volume of […] to make the final volume per well up to 50 μl, was shaken at 750 rpm with an Orbital shaker for 20 seconds, and was then incubated for desired period of time. 12 μl of 15 mM EDTA pH 6.14 per well was added (upto 20 mM can be added depending on the cell line). Shake at 750 rpm with an Orbital shaker for 20 seconds and incubate at 37° C. for 15 minutes (min) to 1 h (until cells lift).

[3] = system: HeLa cells; conditions: 12 μl of 15 mM EDTA pH 6.14 added to media, 37° C., 96-well
Experimental: as §1, §2

[4] = system: BJ cells; conditions: 12 μl of 15 mM EDTA pH 6.14 added to media, 37° C., 96-well
Experimental: as §1, §2

[5] = system: MCF-7 cells; conditions: 12 μl of 15 mM EDTA pH 6.14 added to media, 37° C., 96-well
Experimental: as §1, §2

[6] = system: HT1080 cells; conditions: 12 μl of 15 mM EDTA pH 6.14 added to media, 37° C., 96-well
Experimental: as §1, §2

[7] = system: BT20 cells; conditions: 12 μl of 15 mM EDTA pH 6.14 added to media, 37° C., 96-well
Experimental: as §2, with “5000” for “The following steps can be used to measure apoptosis using APOPercentage Assay in adherent cells. 5000”, “12 μl of 15 mM EDTA pH 6.14 per well was added (upto 20 mM can be added depending on the cell line).” left out

[8] = system: DU145 cells; assay: APOPercentage apoptosis assay by flow cytometry; type: cell-based; conditions: APOPercentage dye, 2.5 mM H2O2 positive control, Accuri C6 HTFC, 96-well
Experimental: as §1
(§3) The following steps can be used to measure apoptosis using APOPercentage Assay in adherent cells. 5000 cells per well were plated in 45 μl of media in 96-well plate, shaken at 750 rpm with an Orbital shaker for 20 seconds, and allowed to settle 16-24 hours (h). […]

[9] = system: HT1080 cells; assay: APOPercentage apoptosis assay by flow cytometry; type: cell-based; conditions: APOPercentage dye, 2.5 mM H2O2 positive control, Accuri C6 HTFC, 96-well
Experimental: as §1, §3

[10] = system: HeLa cells; assay: Reactive oxygen species (ROS) DCFDA assay by flow cytometry; type: cell-based; conditions: 10 μM DCFDA, 10 mM H2O2 positive control, Accuri C6 HTFC, 96-well
Experimental: (§4) Add 15 μl of serum free media and incubate for 5-10 min.
In FIG. 9, HeLa and MCF-7 Cells were analyzed by flow cytometry on an Accuri C6 to determine the level of ROS in cells. Cells were seeded at a density of 5×10^3 cells per well in a 96-well plate, the following day cells were treated with 10 mM H2O2 as a positive control for ROS and test compounds. HeLa cells were stained with a final concentration of 10 μM DCFDA dye immediately after adding H2O2 (A). After incubation cells were lifted with EDTA and analyzed by flow cytometry. Separation of untreated (yellow) and treated (purple) cells based on FL-1-H profile (A). MCF-7 cells were treated with Plumbagin and its derivative Crotonate Plumbagin for 1 h (B). A final 10 μM DCFDA was added simultaneously with Plumbagin and its derivative to cells. Following incubation with drug cells were lifted with EDTA and analyzed by flow cytometry.
In FIGS. 10A-B, MCF-7 and HeLa Cells were analyzed by flow cytometry on a BD LSRFortessa HTS to determine the level of ROS in cells. Data was analyzed using FlowJo version 7.6.5 software. Cells were seeded at a density of 5×10^3 cells per well in a 96-well plate, the following day cells were left untreated (blue peak) or treated with 10 mM H2O2 as a positive control (red peak) for ROS. […] Cells were lifted with EDTA and analyzed by flow cytometry.

[11] = system: HeLa cells; assay: Mitochondrial membrane potential (MMP) JC-1 assay by flow cytometry; type: cell-based; conditions: 2 μM JC-1, 100 mM H2O2 positive control, Accuri C6 HTFC, 96-well
Experimental: (§5) The following can be the steps used to determining MMP by Flow Cytometry in adherent cells. […] Add 15 μl of serum free media containing JC-1 dye so that the final concentration is 2 μM in a total volume of 77 μl and incubate for 1-2 h at 37° C. […] 100 mM H2O2 can be used as a positive control.

[12] = system: MCF-7 cells; assay: Reactive oxygen species (ROS) DCFDA assay by flow cytometry; type: cell-based; conditions: 10 μM DCFDA, 2-10 mM H2O2 positive control, Accuri C6 HTFC, 96-well
Experimental: as §4
In FIGS. […] Data was analyzed using FlowJo version 7.6.5 software. Cells were seeded at a density of 5×10^3 cells per well in a 96-well plate, the following day cells were left untreated (blue peak) or treated with 10 mM H2O2 as a positive control (red peak) for ROS. MCF-7 and HeLa cells were stained with a final concentration of 10 μM DCFDA dye immediately after adding H2O2 (A and B). Cells were lifted with EDTA and analyzed by flow cytometry.

[13] = system: DU145 cells; assay: Mitochondrial membrane potential (MMP) JC-1 assay by flow cytometry; type: cell-based; conditions: 2 μM JC-1, 100 mM H2O2 positive control, Accuri C6 HTFC, 96-well
Experimental: as §5
In FIGS. 7A-B, DU145 Cells unstained (blue), untreated (red) or treated (green) were analyzed by flow cytometry on an Accuri C6 to determine the percentage of cells with disrupted MMP. Cells were seeded at a density of 5×10^3 cells per well in 96-well plate. Following day media was removed from cells and replaced with 50 μl EDTA as a positive control for MMP disruption for 60 min. Cells were lifted with EDTA and stained with a final concentration of 2 μM JC-1 dye and analyzed by flow cytometry. Separation of unstained (blue), untreated (red) and treated (green) cells based on FL2-H and FL-1-H profile (A). 1D Histogram of unstained (blue), untreated (red) and treated (green) cells measuring fluorescence in the FL2-H channel (B).
In FIG. 8, DU145 and MCF-7 Cells were analyzed by flow cytometry on a BD LSRFortessa HTS to determine the level of MMP in cells. Data was analyzed using FlowJo version 7.6.5 software. […] Cells were lifted with EDTA and analyzed by flow cytometry.

[14] = system: BT20 cells; assay: Reactive oxygen species (ROS) DCFDA assay by flow cytometry; type: cell-based; conditions: 10 μM DCFDA, 2-10 mM H2O2 positive control, Accuri C6 HTFC, 96-well
Experimental: as §4

[15] = system: HeLa cells; assay: APOPercentage apoptosis assay by flow cytometry; type: cell-based; conditions: APOPercentage dye, 2.5 mM H2O2 positive control, Accuri C6 HTFC, 96-well
Experimental: (§6) The HTFC system was used.
(§7) Untreated and treated HeLa cells were also analyzed by flow cytometry on an Accuri C6 flow cytometer to determine the percentage of cells undergoing apoptosis (FIG. 4). Cells were seeded at a density of 5×10^3 cells per well in 96 well plate. Cells treated with 2.5 mM H2O2 for 30 minutes or 62 μl EDTA pH 6.14 for 15-30 min. added to cells after removing media were used as a positive control for apoptosis. Cells were lifted and stained with 10 APOPercentage dye. The cells were then analyzed by flow cytometry. […] FIG. 4C is a bar graph showing the percentage of non-apoptotic and apoptotic cells within the untreated or treated population of cells.
(§8) Add 15 μl of serum free media containing 1 μl APOPercentage dye and incubate for 15-20 min at 37° C. […] 2.5 mM H2O2 is used as a positive control.
Cells were seeded at a density of 5×10^3 cells per well in a 96-well plate. Following day, cells were treated with 2.5 mM H2O2 for 30 min. or 62 μl EDTA pH 6.14 for 15-30 min. added to cells after removing media as a positive control for apoptosis for 15-30 min. Cells were lifted with EDTA and stained with […] and analyzed by flow cytometry. […] 1D Histogram of untreated (blue) and treated (red) cells measuring fluorescence in the FL2-H channel and applying gates to delineate Non-apoptotic (blue) and Apoptotic (red) cells (FIG. 5B). […]

[16] = system: MCF-7 cells; assay: Mitochondrial membrane potential (MMP) JC-1 assay by flow cytometry; type: cell-based; conditions: 2 μM JC-1, 100 mM H2O2 positive control, Accuri C6 HTFC, 96-well
Experimental: as §5
In FIG. […] Data was analyzed using FlowJo version 7.6.5 software. Cells were seeded at a density of 5×10^3 cells per well in a 96-well plate, the following day cells were left untreated (red) or treated with 100 mM H2O2 as a positive control (blue) for MMP disruption. DU145 cells were stained with a final concentration of 2 μM JC-1 dye (representative image). Cells were lifted with EDTA and analyzed by flow cytometry.

[17] = system: MCF-7 cells; assay: APOPercentage apoptosis assay by flow cytometry; type: cell-based; conditions: APOPercentage dye, 2.5 mM H2O2 positive control, Accuri C6 HTFC, 96-well
Experimental: as §6
as §7, with “treated MCF-7” for “treated HeLa”, “were” for “were also”, “(FIG. 3).” for “(FIG. 4).”, “apoptosis. The cells” for “apoptosis. Cells”, “with 1 μl” for “with 10”, “FIG. 3C” for “FIG. 4C”
as §8
In FIG. 6, MCF-7 Cells untreated (blue, left) or treated (red, right) were analyzed by flow cytometry on a BD LSRFortessa HTS flow cytometer to determine the percentage of cells undergoing apoptosis. Data was analyzed using FlowJo version 7.6.5 software. […] Cells were lifted with EDTA and stained with 1 μl APOPercentage and analyzed by flow cytometry. 1D Histogram of untreated (blue) and treated (red) cells measuring fluorescence in the PE-A channel and applying gates to delineate Non-apoptotic (blue) and Apoptotic (red) cells.

[18] = system: BJ fibroblast cells; assay: APOPercentage apoptosis assay by flow cytometry; type: cell-based; conditions: APOPercentage dye, 2.5 mM H2O2 positive control, Accuri C6 HTFC, 96-well
Experimental: as §6
BJ fibroblast cells were analyzed by flow cytometry on an Accuri C6 flow cytometer to determine the percentage of cells undergoing apoptosis (FIG. 2). Cells were seeded at a density of 5×10^3 cells per well in 96 well plate. Cells exposed to 2.5 mM H2O2 for 30 minutes or 62 μl EDTA pH 6.14 for 15-30 min. added to cells after removing media were used as a positive control for apoptosis. Cells were lifted and stained with 1 μl APOPercentage dye. The cells were then analyzed by flow cytometry. […] FIG. 2B includes a 1D Histogram of untreated and treated cells showing the fluorescence measured in the FL2-H channel, where gates were applied to delineate non-apoptotic and apoptotic cells. FIG. 2C is a bar graph showing the percentage of non-apoptotic and apoptotic cells that was measured within the untreated or treated (positive control) population of cells.
as §8

Compound: O=C(O)CN(CCN(CC(=O)O)CC(=O)O)CC(=O)O [EDTA, ethylenediaminetetraacetic acid]
- effect of cell lifting chemical on untreated cells (membrane, apoptosis) [1]: did not induce unwanted apoptosis in untreated cells
- Time to lift with EDTA [2]: 20 to 30 min
- Time to lift with EDTA [3]: 30 to 45 min
- Time to lift with EDTA [4]: 30 to 50 min
- Time to lift with EDTA [5]: 15 to 20 min
- Time to lift with EDTA [6]: 20 to 30 min
- Time to lift with EDTA [7]: 40 to 60 min

Compound: OO [H2O2]
- Percent cells stained in positive control [8]: 90%
- Percent cells stained in positive control [9]: 95%
- Percent cells stained with DCFDA in treated positive control [10]: 90%
- Percent cells having JC-1 green in treated positive control [11]: 90%
- Percent cells stained with DCFDA in treated positive control [12]: 90%
- Percent cells having JC-1 green in treated positive control [13]: 90%
- Percent cells stained with DCFDA in treated positive control [14]: 95%
- Percent cells stained in positive control [15]: 90%
- Percent cells having JC-1 green in treated positive control [16]: 95%
- Percent cells stained in positive control [17]: 85%
- Percent cells stained in positive control [18]: 90%
